Test results from ChEMBL document CHEMBL3400005, “Thermodynamic equilibrium solubility measurements in simulated fluids by 96-well plate method in early drug discovery” (Bioorg Med Chem Lett, 2015).
Converted amounts (≈) assume the structure as drawn.

How the values were obtained:
[1] = buffer, 4 h
[2] = buffer, pH 7.4, 4 h
[3] = buffer, 24 h
[4] = buffer, pH 7.4, 24 h
[5] = physchem; details: simulated gastric fluid, pH 1.2
[6] = physchem; details: simulated intestinal fluid, pH 6.8
[7] = physchem; details: simulated gastric fluid, pH 1.2; remark: listed apart in the source
[8] = physchem; details: simulated intestinal fluid, pH 6.8; remark: listed apart in the source
[9] = simulated gi fluid, pH 1.2, 4 h
[10] = simulated gi fluid, pH 6.8, 4 h
[11] = simulated gi fluid, pH 1.2, 24 h
[12] = simulated gi fluid, pH 6.8, 24 h
[13] = physchem; details: water
[14] = physchem; details: PBS, pH 7.4
[15] = physchem; details: water; remark: listed apart in the source
[16] = physchem; details: PBS, pH 7.4; remark: listed apart in the source
[17] = physchem

CC(=O)Nc1ccc(O)cc1 [ACETAMINOPHEN]
-log(solubility) [1]: 2.7 | -log(solubility) [2]: 3 | -log(solubility) [3]: 2.87 | -log(solubility) [4]: 2.93 | solubility thermodynamic at 4 h [5]: 1000 µM (≈ 151 µg/mL) | solubility thermodynamic at 4 h [6]: 3.31 µM (≈ 0.501 µg/mL) | solubility thermodynamic at 24 h [7]: 1230 µM (≈ 186 µg/mL) | solubility thermodynamic at 24 h [8]: 3.31 µM (≈ 0.501 µg/mL)

CCCC1O[C@@H]2C[C@H]3[C@@H]4CCC5=CC(=O)C=C[C@]5(C)[C@H]4[C@@H](O)C[C@]3(C)[C@]2(C(=O)CO)O1 (stereo partly drawn) [BUDESONIDE]
-log(solubility) [1]: 5.03 | -log(solubility) [2]: 5.03 | -log(solubility) [9]: 5.03 | -log(solubility) [10]: 5.03 | -log(solubility) [3]: 5.23 | -log(solubility) [4]: 5.27 | -log(solubility) [11]: 5.07 | -log(solubility) [12]: 5.24 | -log(solubility): 5.33 | solubility: 28 µg/mL (≈ 65 µM)

NC(=O)N1c2ccccc2C=Cc2ccccc21 [CARBAMAZEPINE]
-log(solubility) [1]: 4.07 | -log(solubility) [2]: 4.47 | -log(solubility) [9]: 4.07 | -log(solubility) [10]: 4.28 | -log(solubility) [3]: 4.4 | -log(solubility) [4]: 4.48 | -log(solubility) [11]: 4.34 | -log(solubility) [12]: 4.85 | -log(solubility): 4.29 | solubility: 170 µg/mL (≈ 720 µM)

COc1cc2c(c(OC)c1OC)-c1ccc(OC)c(=O)cc1[C@@H](NC(C)=O)CC2 [COLCHICINE]
-log(solubility) [1]: 3.43 | -log(solubility) [2]: 3.7 | solubility thermodynamic at 4 h [5]: 50.1 µM (≈ 20 µg/mL) | solubility thermodynamic at 4 h [6]: 200 µM (≈ 79.7 µg/mL)

COc1cc(/C=C/C(=O)CC(=O)/C=C/c2ccc(O)c(OC)c2)ccc1O [CURCUMIN]
-log(solubility): 6.78 | solubility thermodynamic at 4 h [13]: 1.35 µM (≈ 0.497 µg/mL) | solubility thermodynamic at 4 h [14]: 1.35 µM (≈ 0.497 µg/mL) | solubility thermodynamic at 4 h [5]: 1.35 µM (≈ 0.497 µg/mL) | solubility thermodynamic at 4 h [6]: 1.35 µM (≈ 0.497 µg/mL)

CC1(C)[C@@H](O)CC[C@]2(C)[C@H]3C(=O)C=C4[C@@H]5C[C@@](C)(C(=O)O)CC[C@]5(C)CC[C@@]4(C)[C@]3(C)CC[C@@H]12 [ENOXOLONE]
-log(solubility) [1]: 5.97 | -log(solubility) [2]: 5.67 | solubility thermodynamic at 4 h [5]: 1.07 µM (≈ 0.504 µg/mL) | solubility thermodynamic at 4 h [6]: 1.07 µM (≈ 0.504 µg/mL)

COCCOC(=O)C1=C(C)NC(C)=C(C(=O)OC(C)C)C1c1cccc([N+](=O)[O-])c1 (stereo not drawn) [NIMODIPINE]
-log(solubility) [2]: 6.62 | solubility thermodynamic at 4 h [13]: 4.79 µM (≈ 2 µg/mL) | solubility thermodynamic at 4 h [5]: 9.55 µM (≈ 4 µg/mL) | solubility thermodynamic at 4 h [6]: 9.55 µM (≈ 4 µg/mL) | solubility thermodynamic at 24 h [15]: 4.07 µM (≈ 1.7 µg/mL) | solubility thermodynamic at 24 h [16]: 0.398 µM (≈ 0.167 µg/mL) | solubility thermodynamic at 24 h [7]: 10.7 µM (≈ 4.48 µg/mL) | solubility thermodynamic at 24 h [8]: 10 µM (≈ 4.18 µg/mL) | solubility thermodynamic [17]: 5.75 µM (≈ 2.41 µg/mL)

CO[C@H]1/C=C/O[C@@]2(C)Oc3c(C)c(O)c4c(O)c(c(/C=N/N5CCN(C)CC5)c(O)c4c3C2=O)NC(=O)/C(C)=C\C=C\[C@H](C)[C@H](O)[C@@H](C)[C@@H](O)[C@@H](C)[C@H](OC(C)=O)[C@@H]1C [RIFAMPIN]
-log(solubility) [1]: 4.31 | -log(solubility) [2]: 4.01 | -log(solubility) [3]: 4.21 | -log(solubility) [4]: 4.14 | solubility thermodynamic at 4 h [5]: 97.7 µM (≈ 80.4 µg/mL) | solubility thermodynamic at 4 h [6]: 97.7 µM (≈ 80.4 µg/mL) | solubility thermodynamic at 24 h [7]: 95.5 µM (≈ 78.6 µg/mL) | solubility thermodynamic at 24 h [8]: 72.4 µM (≈ 59.6 µg/mL)
